# Counter-ions that a name gives are not always drawn.
# Experiments:
# Format in all cases: biochemical
# hOGA = molecular target: T1, hOGA (Homo sapiens, UniProt O60502); assay: Inhibition assay against hOGA, resorufin N-acetyl-β-D-glucosaminide fluorescence; details: 0.2 nM hOGA, 25 μM substrate, pH 7.1; Morrison Ki
# T1 sequence (O60502 1-916): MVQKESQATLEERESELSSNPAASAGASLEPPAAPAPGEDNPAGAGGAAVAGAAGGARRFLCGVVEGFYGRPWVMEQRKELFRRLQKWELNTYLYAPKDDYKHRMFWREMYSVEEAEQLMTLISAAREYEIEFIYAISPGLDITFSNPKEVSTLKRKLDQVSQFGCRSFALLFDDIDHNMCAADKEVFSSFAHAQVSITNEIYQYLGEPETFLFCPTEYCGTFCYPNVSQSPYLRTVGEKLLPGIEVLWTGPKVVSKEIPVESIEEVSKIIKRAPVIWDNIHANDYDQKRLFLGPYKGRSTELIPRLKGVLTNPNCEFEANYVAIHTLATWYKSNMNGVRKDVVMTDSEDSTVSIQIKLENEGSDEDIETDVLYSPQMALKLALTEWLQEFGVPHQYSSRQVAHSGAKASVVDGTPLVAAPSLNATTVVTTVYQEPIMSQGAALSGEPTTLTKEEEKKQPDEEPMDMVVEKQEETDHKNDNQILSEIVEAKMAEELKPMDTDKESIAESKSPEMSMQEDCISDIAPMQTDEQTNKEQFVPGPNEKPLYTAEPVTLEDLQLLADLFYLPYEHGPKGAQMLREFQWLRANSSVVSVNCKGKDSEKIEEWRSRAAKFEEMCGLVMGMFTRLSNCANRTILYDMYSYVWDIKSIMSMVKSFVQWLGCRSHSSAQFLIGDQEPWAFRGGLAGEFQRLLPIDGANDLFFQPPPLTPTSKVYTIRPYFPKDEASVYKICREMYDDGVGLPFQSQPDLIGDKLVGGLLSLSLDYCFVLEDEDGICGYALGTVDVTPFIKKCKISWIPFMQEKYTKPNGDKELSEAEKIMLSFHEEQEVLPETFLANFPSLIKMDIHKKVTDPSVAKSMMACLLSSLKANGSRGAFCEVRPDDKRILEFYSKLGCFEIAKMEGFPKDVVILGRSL
# Description: Inhibition Assays Against hOGA
# Km=25 μM was measured with these conditions. Inhibition assays were run at 0.2 nM [hOGA] in the same buffer, in the presence or absence of various concentrations of inhibitors and at a fixed substrate concentration of 25 μM and 1% DMSO. First, inhibitor was serially diluted to the desired range of concentrations in 2% DMSO buffer. Next, 50 μL of inhibitor solutions at various concentrations in 2% DMSO Buffer was added to 50 μL of 0.8 nM enzyme and allowed to incubate at 25° C. for 5 minutes. 100 uL of 50 μM and 1% DMSO substrate was then added and reaction mixture was immediately mixed and aliquoted in 45 μL triplicates to a CORNING 384 well black plate. Fluorescence signal was measured continuously for 20 minutes at 37° C. in a BioTek Neo 2 Plate reader set at excitation and emission wavelengths of 572 and 610 nm, respectively. Max reaction rates for all inhibitor concentrations were calculated within Gen5 BioTek reader software. % Activity was subsequently calculated for each inhibitor concentration against the max reaction rate of uninhibited hOGA. GraphPad Prism 2016 was used to approximate the Morrison Ki values for each inhibitor.
# [1] = molecular target: β-N-acetylglucosaminidase (from jack bean); assay: Inhibition assay against commercial β-N-acetylglucosaminidase (jack bean), p-nitrophenyl N-acetyl-β-D-glucosaminide substrate; details: pH 5.5, 37° C.; average of three determinations ± s.e.m.; NI = no inhibition detected at 200 μM; read-out: Jack beans Hex
# Description: (§1) Inhibition Assays Against Commercial β-N-acetylglucosaminidases
# (§2) Inhibition constant (Ki) values were determined by spectrophotometrically measuring the residual hydrolytic activities of the glycosidases against p-nitrophenyl N-acetyl-β-D-glucosaminide. […] Each assay was performed in phosphate-citrate buffer and the reactions were initiated by addition of the enzyme to a solution of the substrate in the absence or presence of various inhibitor concentrations. The mixture was incubated for 10-30 min at 37° C. and the reaction was quenched by addition of 1 M Na2CO3. Reaction times were appropriate to obtain 10-20% conversion of the substrate in order to achieve linear rates. The absorbance of the resulting mixture was determined at 405 nm. Approximate values of Ki were determined using a fixed concentration of substrate (around the Km value for the different glycosidases) and various inhibitor concentrations. Full Ki determinations and enzyme inhibition mode were determined from the slope of Lineweaver-Burk plots and double reciprocal analysis using a Microsoft Office Excel 2007 program.
# [2] = molecular target: β-N-acetylglucosaminidase (from human placenta); assay: Inhibition assay against commercial β-N-acetylglucosaminidase (human placenta), p-nitrophenyl N-acetyl-β-D-glucosaminide substrate; details: pH 5.5, 37° C.; average of three determinations ± s.e.m.; read-out: Human placenta Hex
# Description: as §1, §2
# [3] = molecular target: β-N-acetylglucosaminidase (from bovine kidney); assay: Inhibition assay against commercial β-N-acetylglucosaminidase (bovine kidney), p-nitrophenyl N-acetyl-β-D-glucosaminide substrate; details: pH 5.5, 37° C.; average of three determinations ± s.e.m.; NI = no inhibition detected at 200 μM; read-out: Bovine kidney Hex
# Description: as §1, §2
# [4] = molecular target: T2, Recombinant Human Hexosaminidase A (HexA) (Homo sapiens, UniProt P06865); assay: Inhibition assay against rhHexA, 4-methylumbelliferone-N-acetyl-β-D-glucosaminide fluorescence; details: IC50 for lysosomal hHexA; NI = no inhibition detected at 200 μM
# T2 construct: purchased R&D Systems 6237-GH-020
# T2 sequence (P06865 89-529): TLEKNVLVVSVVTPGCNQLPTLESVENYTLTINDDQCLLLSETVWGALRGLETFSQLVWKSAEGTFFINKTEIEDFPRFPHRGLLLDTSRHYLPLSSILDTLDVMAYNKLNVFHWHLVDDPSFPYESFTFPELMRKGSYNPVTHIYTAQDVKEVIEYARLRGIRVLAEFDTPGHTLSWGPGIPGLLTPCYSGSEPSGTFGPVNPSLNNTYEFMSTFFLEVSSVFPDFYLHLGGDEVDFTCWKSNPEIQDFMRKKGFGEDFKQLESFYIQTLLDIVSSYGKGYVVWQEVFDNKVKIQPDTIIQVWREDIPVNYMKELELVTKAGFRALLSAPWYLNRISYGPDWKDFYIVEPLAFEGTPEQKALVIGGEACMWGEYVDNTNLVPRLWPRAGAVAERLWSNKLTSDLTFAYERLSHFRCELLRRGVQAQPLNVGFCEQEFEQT
# Description: Inhibition Assays Against rhHexA
# Human Hexosaminidase A (HexA) enzyme, purchased from R&D Systems (cat# 6237-GH-020), were determined by measuring the fluorescent signal corresponding to the rate of hydrolytic activity against the commercially available artificial substrate, 4-Methylumbelliferone-N-acetyl-β-D-glucosaminide. HexA activity assays were performed in a buffer of 100 mM sodium citrate, 250 NaCl, pH 4.5 and 1.0 nM [HexA], then stopped after 20 minutes with a solution of 1.0 M Tris, pH 9.5 to enhance fluorescent signal. Preliminary experiments have shown that reaction rates are linear for 20 minutes after substrate addition, and that 1.0 M Tris at pH 9.5 is sufficient for stopping activity, as signal is stable after stopping. Inhibition assays were run in the presence or absence of various concentrations of inhibitors and at a fixed substrate concentration of 100 μM and 1% DMSO. First, inhibitor was serially diluted to the desired range of concentrations in 2% DMSO buffer. Next, 25 μL, of inhibitor solutions at various concentrations in 2% DMSO Buffer was added to 25 μL, of 4.0 nM enzyme and allowed to incubate at 25° C. for 5 minutes. 50 μL of 200 μM and 1% DMSO substrate was then added and allowed to react for 20 minutes. 100 μL of stop solution was added to reaction mixture, and immediately mixed and aliquoted in 45 μL triplicates to a CORNING 384 well black plate. Fluorescence signal was measured in a BioTek Neo 2 Plate reader set at excitation and emission wavelengths of 355 and 450 nm, respectively. % Activity was subsequently calculated for each inhibitor concentration against the fluorescence signal of uninhibited HexA. […]
Ki (hOGA),Ki [1],Ki [2],Ki [3],IC50 [4],SMILES
24.1 nM,850 ± 60 nM,240 ± 20 nM,570 ± 40 nM,990 nM,"CCCCN=C1SCC2C(O)C(O)C(NC(C)=O)CN12 (stereo not drawn) [Compound 1, 2-Acetamido-5-N,6-S-(N′-butyliminomethylidene)-1,2-dideoxy-6-thionojirimycin Hydrochloride]"
20.2 nM,1300 ± 100 nM,240 ± 20 nM,190 ± 20 nM,580 nM,"CCCCCCCCN=C1SCC2C(O)C(O)C(NC(C)=O)CN12 (stereo not drawn) [Compound 2, 2-Acetamido-1,2-dideoxy-5-N,6-S-(N′-octyliminomethylidene)-6-thionojirimycin Hydrochloride]"
399 nM,2800 ± 200 nM,580 ± 40 nM,700 ± 50 nM,410 nM,"CC(=O)N[C@H]1CN2/C(=N/c3ccccc3)SC[C@@H]2[C@@H](O)[C@@H]1O [Compound 3, 2-Acetamido-1,2-dideoxy-5-N,6-S-(N′-phenyliminomethylidene)-6-thionojirimycin Hydrochloride]"
0.292 nM,2400 ± 200 nM,,890 ± 800 nM,,"CC(=O)N[C@H]1CN2/C(=N/Cc3cccc4ccccc34)SC[C@@H]2[C@@H](O)[C@@H]1O [Compound 5, 2-Acetamido-5-N,6-S-(N′-1-naphthylmethyliminomethylidene)-1,2-dideoxy-6-thionojirimycin Hydrochloride]"
53.8 nM,3200 ± 300 nM,280 ± 20 nM,1500 ± 200 nM,,"CC(=O)N[C@H]1CN2/C(=N/Cc3ccc(F)cc3)SC[C@@H]2[C@@H](O)[C@@H]1O [Compound 6, 2-N-Acetyl-5-N,6-S-(N′-p-fluorobenzyliminomethylidene)-1,2-dideoxy-6-thionojirimycin Hydrochloride]"
27.8 nM,2200 ± 100 nM,730 ± 40 nM,1200 ± 100 nM,,"COc1ccc(C/N=C2\SC[C@@H]3[C@@H](O)[C@H](O)[C@@H](NC(C)=O)CN23)cc1 [Compound 7, 2-N-Acetyl-5-N,6-S-(N′-p-methoxybenzyliminomethylidene)-1,2-dideoxy-6-thionojirimycin Hydrochloride]"
47.7 nM,1500 ± 100 nM,400 ± 30 nM,430 ± 40 nM,,"CC(=O)N[C@H]1CN2/C(=N/Cc3ccc(C(F)(F)F)cc3)SC[C@@H]2[C@@H](O)[C@@H]1O [Compound 8, 2-Acetamido-5-N,6-S-(N′-p-trifluoromethylbenzyliminomethylidene)-1,2-dideoxy-6-thionojirimycin hydrochloride]"
0.278 nM,3070 ± 300 nM,,910 ± 90 nM,,"CC(=O)N[C@H]1CN2/C(=N/Cc3ccccc3CN=[N+]=[N-])SC[C@@H]2[C@@H](O)[C@@H]1O [Compound 9, 2-Acetamido-5-N,6-S-(N′-o-azidomethylbenzyliminomethylidene)-1,2-dideoxy-6-thionojirimycin Hydrochloride]"
0.223 nM,3130 ± 800 nM,,830 ± 60 nM,,"CC(=O)N[C@H]1CN2/C(=N/Cc3cccc(CN=[N+]=[N-])c3)SC[C@@H]2[C@@H](O)[C@@H]1O [Compound 10, 2-Acetamido-5-N,6-S-(N′-m-azidomethylbenzyliminomethylidene)-1,2-dideoxy-6-thionojirimycin Hydrochloride]"
0.438 nM,3400 ± 800 nM,,720 ± 50 nM,,"CC(=O)N[C@H]1CN2/C(=N/Cc3ccc(CN=[N+]=[N-])cc3)SC[C@@H]2[C@@H](O)[C@@H]1O [Compound 11, 2-Acetamido-5-N,6-S-(N′-p-azidomethylbenzyliminomethylidene)-1,2-dideoxy-6-thionojirimycin Hydrochloride]"
0.918 nM,2450 ± 320 nM,,1420 ± 120 nM,,"CC(=O)N[C@H]1CN2/C(=N/CCc3ccccc3)SC[C@@H]2[C@@H](O)[C@@H]1O [Compound 12, 2-Acetamido-5-N,6-S-(N′-2-phenylethyliminomethylidene)-1,2-dideoxy-6-thionojirimycin Hydrochloride]"

# — patent US20230391796A1, “GLYCOSIDASE INHIBITORS AND USES THEREOF” (UNIVERSIDAD DE SEVILLA (US) -UNIVERSITY OF SEVILLE (US), priority 2020, published 2023)
